In US10993943B2, “Crystalline forms of selinexor and process for their preparation” (WATSON LABORATORIES INC., priority 2017, dated 2021):

Experiment: Solubility in aqueous medium (buffers at pH 1.2, 4.5, 6.8)
Assay type: physicochemical
Conditions: Form T8 in comparison with Form A

Row | SMILES | solubility in aqueous medium (pH 4.5 (acetate buffer)) | solubility in aqueous medium (pH 6.8 (phosphate buffer)) | solubility in aqueous medium (pH=1.2 (HCl buffer))
1 | O=C(/C=C\n1cnc(-c2cc(C(F)(F)F)cc(C(F)(F)F)c2)n1)NNc1cnccn1 [Form A, (Z)-3-(3-(3,5-bis(trifluoromethyl)phenyl)-1H-1,2,4-triazol-1-yl)-N′-(pyrazin-2-yl) acrylohydrazide] | practically insoluble | practically insoluble | practically insoluble
2 | O=C(/C=C\n1cnc(-c2cc(C(F)(F)F)cc(C(F)(F)F)c2)n1)NNc1cnccn1 [Form T8, (Z)-3-(3-(3,5-bis(trifluoromethyl)phenyl)-1H-1,2,4-triazol-1-yl)-N′-(pyrazin-2-yl) acrylohydrazide] | enhanced solubility | enhanced solubility | enhanced solubility
